Several values for one entry are separate records, joined by “and”; a condition that tells them apart may be missing. Identical values can stand only once.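 A five-concentration, 48-hour dose response in 96-well plates underlies each endpoint, interpolated linearly between surrounding concentrations. GI50 marks 50% less growth. The concentration for full growth arrest is given as TGI.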

Common to all, as to assay: NCI tumour cell line growth inhibition, 48 h
Test [1] has as its system OVCAR-3 ovarian.
The subject of test [2] is UO-31 renal.
Test [3] has as its system A498 renal.
Test [4] deals with HCC-2998 colon.
Test [5] deals with RXF 393 renal.
Test [6] relates to HCT-15 colon.
For test [7], the system named is SW-620 colon.
The test system of test [8] is HOP-62 NSCLC.
Test [9] relates to NCI-H226 lung.
Test [10] deals with UACC-257 melanoma.

Consider `COc1ccc(-c2nn3ncccc3c2-c2ccnc(Nc3ccc4c(c3)OCCO4)n2)cc1`, for which the GI50 in [1] was 9.86 µM; in test [2], 2.19 µM; in test [3] it was 3.69 µM; in test [4], 11 µM; in test [5] it was 3.27 µM; in test [6] it was 6.89 µM. In addition, the GI50 in test [7] was 14.4 µM; in test [8] it was 9.64 µM; in test [9], 5.51 µM; in test [10], 9.07 µM. The TGI in test [1] is > 25 µM; in test [2], 16.7 µM; in test [3] it was 22.1 µM; in [4], > 25 µM; in test [5], > 25 µM; in test [6] it was > 25 µM. In addition, the TGI in test [7], in test [8], in [9] and in test [10] was > 25 µM in each case.
Take `Cn1cc(C2=C(c3ccccc3C(F)(F)F)C(=O)NC2=O)c2ccccc21`: the GI50 was 7.8 µM in [1]; 7.84 µM in test [2]; 3.9 µM in test [3]; > 19.6 µM in test [4]; 5.17 µM in test [5]; 9.59 µM in test [6]. Besides, the GI50 is 10.2 µM in test [7], 11.8 µM in test [8], 7.07 µM in [9] and 9.59 µM in test [10]. In addition, the TGI was 24.8 µM in test [1]; > 25 µM in test [2]; 17.5 µM in [3]; > 25 µM in test [4]; 16.7 µM in test [5]; > 25 µM in test [6]. Besides, the TGI in test [7] was > 25 µM; in test [8], > 25 µM; in test [9] it was > 24.2 µM; in [10], > 22.5 µM.
For the compound `C/C(O)=C(\N=O)C(=O)NCc1ccccc1`, the TGI in test [1], in test [2], in [3], in test [4], in [5] and in test [6] was > 100 µM each time. In addition, the TGI was 31.4 µM in test [7], > 100 µM in test [8], > 100 µM in test [9] and > 100 µM in test [10].
Take `CCOc1ccc(C(C)=O)cc1NC(=O)c1cccc(-c2nnn(CC)n2)c1`: the GI50 in test [1] is 0.377 µM; in test [2] it was 1.94 µM; in [3], 0.803 µM; in [4], 1.71 µM; in test [5], 0.61 µM; in test [6] it was 0.419 µM. The GI50 in [7] was 0.492 µM; in test [8] it was 0.39 µM; in [9] it was 11.2 µM. Also, the TGI in test [1] was 5.89 µM; in test [2], > 100 µM; in test [3] it was 24 µM; in [4], > 100 µM; in [5], 11.6 µM; in test [6], > 100 µM. Also, the TGI is > 100 µM in test [7], 18.1 µM in test [8] and > 100 µM in test [9].
For `COc1ccc2nc3cccc([N+](=O)[O-])c3c(NCCNCCN(C)C)c2c1`, the GI50 in test [1] was 0.0992 µM; in [2] it was 0.119 µM; in [3] it was 0.201 µM; in [4], 0.0269 µM; in test [5], 0.0342 µM; in [6], 0.131 µM. Besides, the GI50 is 0.0486 µM in test [7], 0.183 µM in [8], 0.219 µM in [9] and 0.24 µM in [10]. For the same compound, the TGI turned out to be 0.308 µM in test [1]; 0.377 µM in test [2]; 0.45 µM in test [3]; 0.115 µM in test [4]; 0.122 µM in test [5]; 2.27 µM in test [7]. Further, the TGI in [8] came out at 0.698 µM; in test [9] it was 0.629 µM; in [10], 0.604 µM.
As to `CNCCCNc1c2ccccc2nc2cccc([N+](=O)[O-])c12`, the TGI was 0.0149 µM in test [1]; 0.0241 µM and 0.0682 µM in test [2]; 0.00751 µM in test [3]; 0.0173 µM in test [4]; 0.00217 µM in [5]; 0.0207 µM and 0.0116 µM in test [6]. Moreover, the TGI was 0.0357 µM and 0.0101 µM in [7]; 0.0129 µM in test [8]; 0.0521 µM in test [9]; 0.0495 µM in test [10]. In addition, in test [2], the GI50 was 0.0158 µM.
For the compound `COc1cccc2nc3c(C(=O)NCCN(C)C)cccc3nc12`, the TGI in [1] worked out at 73.9 µM; in [2], 66.8 µM; in [3], 27.3 µM; in [4], 36.3 µM; in test [5], 26.7 µM; in test [6] it was 80.1 µM. In addition, the TGI is > 57.7 µM in [7], 38.2 µM in test [8], 20.2 µM in [9] and 27.1 µM in [10].
With `Cc1c(C)c2c(c(C)c1OCC(=O)O)CC[C@@](C)(CCC[C@@H](C)CCC[C@@H](C)CCCC(C)C)O2`, the GI50 in test [1] was 77.3 µM; in test [2], 84.1 µM; in [3] it was 94.9 µM; in test [4] it was 102 µM; in [5], 61.6 µM; in [6] it was 40.8 µM. Also, the GI50 in test [7] is 81.9 µM; in test [8] it was 62.2 µM; in test [9] it was 89 µM; in test [10], 77.2 µM. Besides, the TGI in [1] stood at 154 µM; in test [2] it was 152 µM; in [3], 167 µM; in [4] it was 224 µM; in test [5] it was 137 µM; in test [6], 120 µM. The TGI in test [7] was 218 µM; in [8], 161 µM; in test [9], 244 µM; in test [10], 183 µM.
On to `CN(C)CCCCCNc1c2ccccc2nc2cccc([N+](=O)[O-])c12`, for which the TGI in test [1] worked out at 0.00504 µM; in test [2] it was 0.0425 µM; in [3], 0.00758 µM; in test [4], 0.0126 µM; in test [5], 0.0032 µM; in [7], 0.0126 µM. Further, the TGI in test [8] was 0.00716 µM; in test [9] it was 0.057 µM; in test [10], > 0.0231 µM. Further, the GI50 in [2] is 0.0125 µM; in [4], 0.00237 µM; in [5] it was 0.00139 µM; in test [6] it was 0.00218 µM and 0.00274 µM; in test [7], 0.00632 µM.
With `COC(=O)CC(=O)NCC1=CCC(=O)CC1`, the TGI in [1], in [2], in test [3], in test [4], in test [5] and in test [6] was > 100 µM in each case. In addition, the TGI in [7], in test [8] and in test [10] was > 100 µM each time.
For `N#C/C(=C\c1ccccc1)C(NO)Nc1ccccc1` (centres undefined), the TGI in [1], in test [2], in [3], in test [4], in [5] and in [6] was > 100 µM each time. The TGI in test [7], in test [8], in test [9] and in test [10] was > 100 µM throughout.
On to `CC(=O)NC1=C(N)C(=O)c2ccccc2C1=O`, for which the TGI is 61.9 µM in test [1]; > 100 µM in [2]; > 100 µM in [3]; > 100 µM in [4]; > 100 µM in [5]; > 100 µM in [6]. Besides, the TGI in [7] is 29.2 µM; in test [8], > 100 µM; in test [10], > 100 µM.
Turning to `CCN(CC)c1ccc2nc3ccc(N=Nc4ccc(O)cc4)cc3[n+](-c3ccccc3)c2c1`, the GI50 in test [1] is 0.359 µM; in [3] it was > 100 µM; in test [4] it was 4.51 µM; in [5], 10.4 µM; in [6], 6.87 µM; in [7], 2.24 µM. The values for the GI50 in test [8], in [9] and in test [10] were 2.68 µM, 11.4 µM and 3.11 µM, respectively. Besides, the TGI is 4.02 µM in [1]; > 100 µM in test [3]; 16.4 µM in test [4]; 24.8 µM in test [5]; > 100 µM in test [6]; 6.38 µM in [7]. The TGI in [8] amounted to 15.1 µM; in test [9], 23.6 µM; in test [10] it was 9.78 µM.
In the case of `CC(=O)O[C@H](C[C@H](C(C)C)N(C)C(=O)[C@@H](NC(=O)[C@H]1CCCCN1C)C(C)C)c1cccc(C(=O)N[C@@H](Cc2ccccc2)C[C@H](C)C(=O)O)n1`, the GI50 in [1] is 0.00707 µM; in test [2] it was 0.33 µM; in test [3] it was 0.0158 µM; in test [4], 0.0544 µM; in test [5] it was 0.0225 µM; in test [6], 0.219 µM. Moreover, the GI50 was < 0.0222 µM in test [7], 0.0648 µM in test [8] and 0.067 µM in test [9]. For the same compound, the TGI is > 25 µM in [2]; 0.0737 µM in test [3]; > 25 µM in test [4]; > 25 µM in test [5]; > 25 µM in test [6]; > 25 µM in test [7]. The TGI in test [8] was > 25 µM; in test [9], 5.36 µM.
On to `COc1cc(CN(c2ccc(C)cc2)C2OC(=O)c3ccccc32)cc(OC)c1OC` (centres undefined), for which the GI50 was 0.328 µM in [1]; 2.7 µM in test [2]; 0.361 µM in test [3]; 0.877 µM in [4]; 0.141 µM in test [5]; 0.568 µM in test [6]. Also, the GI50 in test [8] is 0.627 µM; in test [9] it was 0.507 µM; in test [10] it was 3.41 µM. For the same compound, the TGI was 13.7 µM in test [1]; > 100 µM in [2]; 4.52 µM in test [3]; > 31.2 µM in test [4]; 0.52 µM in test [5]; > 100 µM in test [6]. In addition, the TGI in [8] is > 67.4 µM; in test [9] it was > 19.7 µM; in test [10] it was > 100 µM.
For `C1CC2=C(C1)C1=S(S2)SC2=C1CCC2`, the TGI in test [1] is > 100 µM; in test [2], > 100 µM; in test [3], 87.4 µM; in test [4], > 100 µM; in [5] it was > 100 µM; in [6], > 100 µM. Also, the TGI in test [7], in test [9] and in test [10] was > 100 µM throughout.
Consider `COC(=O)N/N=C(\C)C(CN(C)C)C(c1ccccc1)c1c(O)c2ccccc2oc1=O` (centres undefined), for which the TGI in [2], in test [3], in [4], in [5], in test [6] and in test [7] was > 100 µM each time. Also, the TGI in [8], in [9] and in test [10] was > 100 µM throughout.
As to `Nc1ccccc1C(=O)NC(=O)Nc1ccc(Oc2ncc(Br)cn2)c(Cl)c1`, the TGI stood at 9.03 µM in test [2]; 1.21 µM in test [3]; 0.19 µM in test [4]; 0.458 µM in test [5]; 22.6 µM in test [6]; 26.3 µM in test [7]. The TGI in test [8] amounted to 4.03 µM; in [9] it was 1.49 µM; in test [10] it was 25.3 µM. The GI50 in [7] is 0.0181 µM.
`c1ccc(C2CC(c3ccc4ccccc4c3)=Nc3ccccc3S2)cc1` (centres undefined): the TGI in [1] turned out to be 38.7 µM; in [2] it was 25.1 µM; in [3], 31.1 µM; in test [4], 24.8 µM; in test [5], 33.4 µM; in test [7] it was 33.8 µM. Besides, the results for the TGI in test [8], in test [9] and in test [10] were 38.2 µM, 42.7 µM and 34.9 µM, respectively.
Turning to `C=C(CO)CC(/C=C(\C)CC/C=C(\C)CCl)OC(C)=O` (centres undefined), the TGI in test [1], in [2], in test [3], in test [4], in test [5] and in test [6] was > 100 µM each time. The TGI in test [7], in [8] and in test [9] was > 100 µM throughout.
